Laboratory results from patent publication US5593982A, “Cyclopentanperhydrophenanthren-17β-(3-furyl)-3-derivatives and pharmaceutical compositions comprising same for the treatment of cardiovascular disorders” (Sigma-Tau Industrie Farmaceutiche Riunite S.p.A., priority 1992, dated 1997).
Counter-ions that a name gives are not always drawn. Like-named read-outs stand apart in the source and are kept apart here.

Legend:
[1] = molecular target: T1, purified Na^+,K^+ -ATPase (Canis lupus familiaris, UniProt P50997); experiment: inhibition of the activity of the purified Na+,K+-ATPase measured as % of hydrolysis of 32P-ATP; assay type: biochemical
T1 construct: from tissue; mammalian kidney outer medulla by the cited Jorgensen 1974 method (own knowledge)
Source text: (§1) To test the affinity for the receptor site of the Na^+,K^+ -ATPase and the agonist or antagonist activity on the enzyme, the following tests were used: a) displacement of the specific ^3 H-ouabain binding from the Na^+,K^+ -ATPase receptor purified according to Jorghensen (Jorghensen P., BBA, 1974, 356, 36) and Erdmann (Erdmann E. et al., Arzneim. Forsh., 1984, 34, 1314); b) inhibition of the activity of the purified Na^+,K^+ -ATPase measured as % of hydrolysis of ^32 P-ATP in presence and in absence of the tested compound (Mall F. et al., Biochem. Pharmacol., 1984, 33, 47).

[2] = molecular target: T2, Na^+,K^+ -ATPase receptor (Canis lupus familiaris, UniProt P50997); experiment: displacement of the specific 3H-ouabain binding from the purified Na+,K+-ATPase receptor
T2 construct: from tissue; mammalian kidney outer medulla by the cited Jorgensen 1974 method (own knowledge)
Source text: as §1

[3] = hydrolysis of 32P-ATP, purified Na+,K+-ATPase, read-out: Inhibitory Activity log IC50 (converted)
[4] = displacement of specific 3H-ouabain binding, purified Na+,K+-ATPase, read-out: Binding 3H-Ouab. Displacement log IC50 (converted)

| Structure (SMILES) | IC50 [1] [nM] | IC50 [2] [nM] | IC50 [1, 3] [nM] | IC50 [2, 4] [nM] |
| --- | --- | --- | --- | --- |
| C[C@]12CC[C@H](OCCN)C[C@H]1CC[C@@H]1[C@@H]2CC[C@]2(C)[C@@H](c3ccoc3)CC[C@]12O [Comp. I-aa, 3β-(2-Aminoethoxy)-17β-(3-furyl)-5β-androstan-14β-ol] | 501 | 158 |  |  |
| C[C@]12CC[C@H](OCCCCN)C[C@H]1CC[C@@H]1[C@@H]2CC[C@]2(C)[C@@H](c3ccoc3)CC[C@]12O [Comp. I-ac, 3β-(4-Aminobutoxy)-17β-(3-furyl)-5β-androstan-14β-ol] | 2000 | 398 |  |  |
| C[C@]12CC[C@H](OCCN3CCCC3)C[C@H]1CC[C@@H]1[C@@H]2CC[C@]2(C)[C@@H](c3ccoc3)CC[C@]12O [Comp. I-ad, 3β-(2-(1-Pyrrolydinyl)ethoxy)-17β-(3-furyl)-5β-androstan-14β-ol] | 1000 | 158 |  |  |
| C[C@]12CC[C@H](OCCCN3CCNCC3)C[C@H]1CC[C@@H]1[C@@H]2CC[C@]2(C)[C@@H](c3ccoc3)CC[C@]12O [Comp. I-af, 3β-(3-(1-Piperazinyl)propoxy)-17β-(3-furyl)-5.β-androstan-14β-ol] |  | 100 | 1260 |  |
| C[C@]12CC[C@H](OCCOCCN3CCCC3)C[C@H]1CC[C@@H]1[C@@H]2CC[C@]2(C)[C@@H](c3ccoc3)CC[C@]12O [Comp. I-ah, 3β-(2-(2-(1-Pyrrolidinyl)ethoxy)ethoxy)-17β-(3-furyl)-5β-androstan-14β-ol] | 794 | 158 |  |  |
| CN(C)CCCOCCO[C@H]1CC[C@@]2(C)[C@H](CC[C@@H]3[C@@H]2CC[C@]2(C)[C@@H](c4ccoc4)CC[C@]32O)C1 [Comp. I-aj, 3β-(2-(3-Dimethylaminopropoxy)-ethoxy)-17β-(3-furyl)-5β-androstan-14β-ol] |  | 158 | 1260 |  |
| C[C@]12CC[C@H](OCC[N+]3(C)CCCC3)C[C@H]1CC[C@@H]1[C@@H]2CC[C@]2(C)[C@@H](c3ccoc3)CC[C@]12O [Comp. I-ak, 3β-(2-(N-methyl-1-pyrrolydinium)ethoxy)-17β-(3-furyl)-5β-androstan-14β-ol iodide] |  | 158 | 1260 |  |
| C[C@]12CC[C@H](OCCCNC(=N)N)C[C@H]1CC[C@@H]1[C@@H]2CC[C@]2(C)[C@@H](c3ccoc3)CC[C@]12O [Comp. I-am, 3β-(3-Guanidinopropxy)-17β-(3-furyl)-5β-androstan-14β-ol nitrate] | 3160 | 200 |  |  |
| CNCCO[C@H]1CC[C@@]2(C)[C@H](CC[C@@H]3[C@@H]2CC[C@]2(C)[C@@H](c4ccoc4)CC[C@]32O)C1 [Comp. I-an, 3β-(2-Methylaminoethoxy)-17β-(3-furyl)-5β-androstan-14β-ol] | 1580 | 200 |  |  |
| C[C@]12CC[C@H](OCC(N)CN)C[C@H]1CC[C@@H]1[C@@H]2CC[C@]2(C)[C@@H](c3ccoc3)CC[C@]12O (stereo partly drawn) [Comp. I-ao, 3β-(2,3-Diaminopropoxy)-17β-(3-furyl)-5β-androstan-14β-ol] | 1580 | 316 |  |  |
| C[C@]12CC[C@H](OCC(CN3CCCC3)N3CCCC3)C[C@H]1CC[C@@H]1[C@@H]2CC[C@]2(C)[C@@H](c3ccoc3)CC[C@]12O (stereo partly drawn) [Comp. I-ap, 3β-(2,3-Bis(1-pyrrolidinyl)propoxy)-17β-(3-furyl)-5β-androstan-14β-ol] | 1580 | 398 |  |  |
| CO[C@]12CC[C@H](c3ccoc3)[C@@]1(C)CC[C@H]1[C@H]2CC[C@@H]2C[C@@H](OCCCN)CC[C@@]21C [Comp. I-ar] |  |  | 25100 | 3160 |
| CO[C@]12CC[C@H](c3ccoc3)[C@@]1(C)CC[C@H]1[C@H]2CC[C@@H]2C[C@@H](OCCN3CCCC3)CC[C@@]21C [Comp. I-as, 3β-(2-(1-Pyrrolydinyl)ethoxy)-14β-methoxy-17β-(3-furyl)-5β-androstane oxalate] |  |  | 25100 | 5010 |
| C[C@]12CC[C@H](OCCCN)C=C1CC[C@@H]1[C@@H]2CC[C@]2(C)[C@@H](c3ccoc3)CC[C@]12O [Comp. I-at, 3β-(3-Aminopropoxy)-17β-(3-furyl)-androst-4-en-14β-ol] | 2510 |  |  | 631 |
| C[C@]12CC[C@H](OCCN3CCCC3)C=C1CC[C@@H]1[C@@H]2CC[C@]2(C)[C@@H](c3ccoc3)CC[C@]12O [Comp. I-au, 3β-(2-(1-Pyrrolidinyl)ethoxy)-17β-(3-furyl)-androst-4-en-14β-ol oxalate] | 1580 | 316 |  |  |
| C[C@]12CC[C@H](OCCCN)CC1=CC[C@@H]1[C@@H]2CC[C@]2(C)[C@@H](c3ccoc3)CC[C@]12O [Comp. I-av, 3β-(3-Aminopropoxy)-17β-(3-furyl)-androst-5-en-14β-ol] | 2510 |  |  | 631 |
| C[C@]12CC[C@H](OCCN3CCCC3)CC1=CC[C@@H]1[C@@H]2CC[C@]2(C)[C@@H](c3ccoc3)CC[C@]12O [Comp. I-aw, 3β-(2-(1-Pyrrolidinyl)ethoxy)-17β-(3-furyl)-androst-5-en--14β-ol] |  | 1580 | 6310 |  |
| C[C@]12CC[C@H](OCCN3CCCC3)C[C@@H]1CC[C@@H]1[C@@H]2CC[C@]2(C)[C@@H](c3ccoc3)CC[C@]12O [Comp. I-ay, 3β-(2-(1-Pyrrolidinyl)ethoxy)-17β-(3-furyl)-5α-androstan-14β-ol] | 3160 | 398 |  |  |
| C[C@]12CC[C@H](OCCN3CCCC3)C[C@H]1CC[C@@H]1[C@@H]2CC[C@]2(C)[C@@H](c3ccoc3)C[C@H]3O[C@]132 [Comp. I-ba, 3β-(2-(1-Pyrrolidinyl)ethoxy)-14β,15β-epoxy-17β-(3-furyl)-5β-androstane oxalate] | 1580 | 631 |  |  |
| C[C@]12CC[C@H](OCCN3CCCC3)C=C1CC[C@@H]1[C@@H]2CC[C@]2(C)[C@@H](c3ccoc3)C[C@H]3O[C@]132 [Comp. I-bc, 3β-(2-(1-Pyrrolidinyl)ethoxy)-14β,15β-epoxy-17β-(3-furyl)-androst-4-ene] | 2000 | 316 |  |  |
| C[C@]12CC[C@H](SCCN3CCOCC3)C[C@H]1CC[C@@H]1[C@@H]2CC[C@]2(C)[C@@H](c3ccoc3)CC[C@]12O [Comp. I-bu, 3β-(2-(4-Morpholinoethylthio)-17β-(3-furyl)-5β-androstan-14β-ol oxalate] | 631 | 316 |  |  |
| C[C@]12CC[C@H](SCCCN3CCNCC3)C[C@H]1CC[C@@H]1[C@@H]2CC[C@]2(C)[C@@H](c3ccoc3)CC[C@]12O [Comp. I-bx, 3β-(3-(1-Piperazinyl)propylthio)-17β-(3-furyl)-5β-androstan-14β-ol dioxalate] | 1000 | 501 |  |  |
| C[C@]12CC[C@H](SCCN3CCCC3)C=C1CC[C@@H]1[C@@H]2CC[C@]2(C)[C@@H](c3ccoc3)CC[C@]12O [Comp. I-ce, 3β-(2-(1-Pyrrolidinyl)ethylthio)-17β-(3-furyl)-androst-4-en-14β-ol oxalate] | 3160 | 1000 |  |  |
| C[C@]12CC[C@H](SCCCN)C[C@H]1CC[C@@H]1[C@@H]2CC[C@]2(C)[C@@H](c3ccoc3)C[C@H]3O[C@]132 [Comp. I-cj, 3β-(3-Aminopropylthio)-14β,15β-epoxy-17β-(3-furyl)-5β-androstane oxalate] | 6310 | 2000 |  |  |
| C[C@]12CC[C@H](OCCOCCCN)C[C@H]1CC[C@@H]1[C@@H]2CC[C@]2(C)[C@@H](c3ccoc3)CC[C@]12O [Comp. I-cx, 3β-(2-(3-Aminopropoxy)ethoxy)-17β-(3-furyl)-5β-androstan, 14β-ol] | 1580 | 200 |  |  |
